Experimental data from patent US8481738B2, “Gonadotropin-releasing hormone receptor antagonists and methods relating thereto” (Neurocrine Biosciences, Inc., priority 2007, dated 2013).
pKi: −log10 of the molar value.

Biological target: T1, human GnRH receptor (Homo sapiens, UniProt P30968)
T1 construct: expressed in transfected cells; host or cells: RBL cells, stably transfected (in general)
T1 sequence (P30968 1-328): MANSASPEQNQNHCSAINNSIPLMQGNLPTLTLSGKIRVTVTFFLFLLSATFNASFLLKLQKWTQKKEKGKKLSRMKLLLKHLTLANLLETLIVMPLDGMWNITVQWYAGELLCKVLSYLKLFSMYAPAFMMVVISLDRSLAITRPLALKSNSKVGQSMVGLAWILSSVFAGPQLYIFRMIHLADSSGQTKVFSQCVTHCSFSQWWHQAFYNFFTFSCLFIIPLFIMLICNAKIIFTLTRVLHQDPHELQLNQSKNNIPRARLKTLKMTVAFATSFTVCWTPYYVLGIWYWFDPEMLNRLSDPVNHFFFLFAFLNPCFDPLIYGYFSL
Experiment: Peptide competition radioligand binding displacement assay, human GnRH receptor membranes
Settings: one or more of the peptide competition human receptor binding assays
Outline: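 Membranes for radioligand binding were prepared from RBL cells stably expressing human GnRH receptor, which were lysed by nitrogen cavitation at 900 psi, 4° C. Membranes from HEK293 cells stably transfected with human receptor were held in 10 mM HEPES pH 7.5, 150 mM NaCl, 0.1% BSA. Transiently transfected COS-7 cells were used for other species.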

COc1cc(Cl)c(-c2cnc(C(F)(F)F)cc2C#N)cc1C(=O)N(C)c1c(C)cccc1OC [39-10]
pKi: ≥ 7.00

COc1cc(Cl)c(-c2cnc(C(F)(F)F)cc2C#N)cc1C(=O)N(C)c1cc(F)ccc1C [39-11]
pKi: ≥ 7.00

COc1cc(Cl)c(-c2cnc(C(F)(F)F)cc2C#N)cc1C(=O)N(C)c1ccccc1-c1cnco1 [39-12]
pKi: ≥ 7.00

COc1cc(Cl)c(-c2cnc(C(F)(F)F)cc2C#N)cc1C(=O)N(C)c1ncccc1OC [39-13]
pKi: ≥ 7.00

COc1cc(Cl)c(-c2cnc(C(F)(F)F)cc2C#N)cc1C(=O)N(C)c1ccccn1 [39-14]
pKi: ≥ 7.00

COc1cc(Cl)c(-c2cnc(C(F)(F)F)cc2C#N)cc1C(=O)N(C)Cc1ccccc1 [39-15]
pKi: ≥ 7.00

COc1cc(Cl)c(-c2cnc(C(F)(F)F)cc2C#N)cc1C(=O)N(C)Cc1ccccc1F [39-16]
pKi: ≥ 7.00

COc1ccccc1CN(C)C(=O)c1cc(-c2cnc(C(F)(F)F)cc2C#N)c(Cl)cc1OC [39-17]
pKi: ≥ 7.00

COc1cccc(CN(C)C(=O)c2cc(-c3cnc(C(F)(F)F)cc3C#N)c(Cl)cc2OC)c1 [39-18]
pKi: ≥ 7.00

COc1cc(Cl)c(-c2cnc(C(F)(F)F)cc2C#N)cc1C(=O)N(C)c1cnccc1OC [39-20]
pKi: ≥ 7.00

COc1cc(Cl)c(-c2cnc(C(F)(F)F)cc2C#N)cc1C(=O)N(C)c1ncccc1C [39-21]
pKi: ≥ 7.00

COc1cccc(N(C)C(=O)c2cc(-c3cnc(C(F)(F)F)cc3C#N)c(Cl)cc2OC)n1 [39-23]
pKi: ≥ 7.00

CN(C(=O)c1ccc(Cl)c(-c2cnc(C(F)(F)F)cc2C#N)c1)c1ccccc1OCCc1n[nH]c(=O)[nH]1 [40-1, 4-Chloro-3-(4-cyano-6-trifluoromethyl-pyridin-3-yl)-N-methyl-N-{2-[2-(5-oxo-4,5-dihydro-1H-[1,2,4]triazol-3-yl)-ethoxy]-phenyl}-benzamide]
pKi: ≥ 7.00

CN(C(=O)c1ccc(Cl)c(-c2cnc(C(F)(F)F)cc2C#N)c1)c1ccccc1OCCNC(=O)NS(C)(=O)=O [41-1, 4-Chloro-3-(4-cyano-6-trifluoromethyl-pyridin-3-yl)-N-{2-[2-(3-methylsulfonyl-ureido)-ethoxy]-phenyl}-N-methyl-benzamide]
pKi: ≥ 7.00

COc1ccccc1N(C)C(=O)c1cc(-c2cnc(C(F)(F)F)cc2C#N)c(Cl)cc1OCCN1CCCC1=O [42-1, 4-Chloro-5-(4-cyano-6-trifluoromethyl-pyridin-3-yl)-N-(2-methoxy-phenyl)-N-methyl-2-[2-(2-oxo-pyrrolidin-1-yl)-ethoxy]-benzamide]
pKi: ≥ 7.00

COc1ccccc1N(C)C(=O)c1cc(-c2cnc(C(F)(F)F)cc2C#N)c(Cl)cc1OCCN1CCOCC1 [42-2]
pKi: ≥ 7.00

COc1ccccc1N(C)C(=O)c1cc(-c2cnc(C(F)(F)F)cc2C#N)c(Cl)cc1OCCn1ccnc1 [42-3]
pKi: ≥ 7.00

COc1ccccc1N(C)C(=O)c1cc(-c2cnc(C(F)(F)F)cc2C#N)c(Cl)cc1OCCc1ccccn1 [42-4]
pKi: ≥ 7.00

COc1ccccc1N(C)C(=O)c1cc(-c2cnc(C(F)(F)F)cc2C#N)c(Cl)cc1OCCCc1ccccn1 [42-6]
pKi: ≥ 7.00

COc1ccccc1N(C)C(=O)c1cc(-c2cnc(C(F)(F)F)cc2C#N)c(Cl)cc1OCCCc1cn[nH]c1 [42-7]
pKi: ≥ 7.00

COc1ccccc1N(C)C(=O)c1cc(-c2cnc(C(F)(F)F)cc2C#N)c(Cl)cc1OCCOc1ccccn1 [42-8]
pKi: ≥ 7.00

COc1ccccc1N(C)C(=O)c1cc(-c2cnc(C(F)(F)F)cc2C#N)c(Cl)cc1OCCCc1ccncc1 [42-9]
pKi: ≥ 7.00

COc1ccccc1N(C)C(=O)c1cc(-c2cnc(C(F)(F)F)cc2C#N)c(Cl)cc1OCCCn1cccc1 [42-10]
pKi: ≥ 7.00

COc1ccccc1N(C)C(=O)c1cc(-c2cnc(C(F)(F)F)cc2C#N)c(Cl)cc1OCCCn1ccnc1 [42-11]
pKi: ≥ 7.00

COc1ccccc1N(C)C(=O)c1cc(-c2cnc(C(F)(F)F)cc2C#N)c(Cl)cc1OCCCn1cccn1 [42-12]
pKi: ≥ 7.00

COc1ccccc1N(C)C(=O)c1cc(-c2cnc(C(F)(F)F)cc2C#N)c(Cl)cc1OCCCn1cncn1 [42-13]
pKi: ≥ 7.00

COc1ccccc1N(C)C(=O)c1cc(-c2cnc(C(F)(F)F)cc2C#N)c(Cl)cc1OCCCc1ccn(C)n1 [42-14]
pKi: ≥ 7.00

COc1ccccc1N(C)C(=O)c1cc(-c2cnc(C(F)(F)F)cc2C#N)c(Cl)cc1OCCCOc1ccccn1 [42-15]
pKi: ≥ 7.00

COc1ccccc1N(C)C(=O)c1cc(-c2cnc(C(F)(F)F)cc2C#N)c(Cl)cc1OCCN [42-16]
pKi: ≥ 7.00

CNCCOc1cc(Cl)c(-c2cnc(C(F)(F)F)cc2C#N)cc1C(=O)N(C)c1ccccc1OC [42-17]
pKi: ≥ 7.00

COc1ccccc1N(C)C(=O)c1cc(-c2cnc(C(F)(F)F)cc2C#N)c(Cl)cc1OCC(N)CO (stereo not shown) [42-18]
pKi: ≥ 7.00

CCOC(=O)CCCOc1cc(Cl)c(-c2cnc(C(F)(F)F)cc2C#N)cc1C(=O)N(C)c1ccccc1OC [43-1, 4-{5-Chloro-4-(4-cyano-6-trifluoromethyl-pyridin-3-yl)-2-[(2-methoxy-phenyl)-methyl-carbamoyl]-phenoxy}-butyric acid ethyl ester]
pKi: ≥ 7.00

COc1ccccc1N(C)C(=O)c1cc(-c2cnc(C(F)(F)F)cc2C#N)c(Cl)cc1CC(=O)O [44-1, {5-Chloro-4-(4-cyano-6-trifluoromethyl-pyridin-3-yl)-2-[(2-methoxy-phenyl)-methyl-carbamoyl]-phenyl}-acetic acid]
pKi: ≥ 7.00

CN(C(=O)c1ccc(Cl)c(-c2cnc(C(F)(F)F)cc2C#N)c1)c1ccccc1OCCc1nnn[nH]1 [45-1, 4-Chloro-3-(4-cyano-6-trifluoromethyl-pyridin-3-yl)-N-methyl-N-{2-[2-(1H-tetrazol-5-yl)-ethoxy]-phenyl}-benzamide]
pKi: ≥ 7.00

COc1ccccc1N(C)C(=O)c1cc(-c2cnc(C(F)(F)F)cc2C#N)c(Cl)cc1OCCCc1cnoc1 [46-1, 4-Chloro-5-(4-cyano-6-trifluoromethyl-pyridin-3-yl)-2-(3-isoxazol-4-yl-propoxy)-N-(2-methoxyphenyl)-N-methyl-benzamide]
pKi: ≥ 7.00

COc1ccccc1CCOc1cc(Cl)c(-c2cnc(C(F)(F)F)cc2C#N)cc1C(=O)N(C)c1ccccc1OC [46-2]
pKi: ≥ 7.00

COc1ccccc1N(C)C(=O)c1cc(-c2cnc(C(F)(F)F)cc2C#N)c(Cl)cc1OCCc1cnccn1 [46-3]
pKi: ≥ 7.00

COc1ccccc1N(C)C(=O)c1cc(-c2cnc(C(F)(F)F)cc2C#N)c(Cl)cc1OCCCN1C(=O)c2ccccc2C1=O [46-4]
pKi: ≥ 7.00

COc1ccccc1N(C)C(=O)c1cc(-c2cnc(C(F)(F)F)cc2C#N)c(Cl)cc1OCCNC(C)=O [47-1, 2-(2-Acetylamino-ethoxy)-4-chloro-5-(4-cyano-6-trifluoromethyl-pyridin-3-yl)-N-(2-methoxy-phenyl)-N-methyl-benzamide]
pKi: ≥ 7.00

COc1ccccc1N(C)C(=O)c1cc(-c2cnc(C(F)(F)F)cc2C#N)c(Cl)cc1OCCN(C)C(C)=O [47-2]
pKi: ≥ 7.00

COc1ccccc1N(C)C(=O)c1cc(-c2cnc(C(F)(F)F)cc2C#N)c(Cl)cc1OCCCNC(C)=O [47-3]
pKi: ≥ 7.00

COc1ccccc1N(C)C(=O)c1cc(-c2cnc(C(F)(F)F)cc2C#N)c(Cl)cc1OCCNC(=O)C(F)(F)F [47-4]
pKi: ≥ 7.00

COc1ccccc1N(C)C(=O)c1cc(-c2cnc(C(F)(F)F)cc2C#N)c(Cl)cc1OCCN(C)C(=O)C(F)(F)F [47-5]
pKi: ≥ 7.00

COc1ccccc1N(C)C(=O)c1cc(-c2cnc(C(F)(F)F)cc2C#N)c(Cl)cc1OCCNS(C)(=O)=O [48-1, 4-Chloro-5-(4-cyano-6-trifluoromethyl-pyridin-3-yl)-2-(2-methanesulfonylamino-ethoxy)-N-(2-methoxy-phenyl)-N-methyl-benzamide]
pKi: ≥ 7.00

COc1ccccc1N(C)C(=O)c1cc(-c2cnc(C(F)(F)F)cc2C#N)c(Cl)cc1OCCN(C)S(C)(=O)=O [48-2, 4-Chloro-5-(4-cyano-6-trifluoromethyl-pyridin-3-yl)-2-[2-(methanesulfonyl-methyl-amino)-ethoxy]-N-(2-methoxy-phenyl)-N-methyl-benzamide]
pKi: ≥ 7.00

COc1ccccc1N(C)C(=O)c1cc(-c2cnc(C(F)(F)F)cc2C#N)c(Cl)cc1OCCCN1CCC[C@H]1C(=O)O [49-1, (S)-1-(3-{5-Chloro-4-(4-cyano-6-trifluoromethyl-pyridin-3-yl)-2-[(2-methoxy-phenyl)-methyl-carbamoyl]-phenoxy}-propyl)-pyrrolidine-2-carboxylic acid]
pKi: ≥ 7.00

COc1ccccc1N(C)C(=O)c1cc(-c2cnc(C(F)(F)F)cc2C#N)c(Cl)cc1OCCN1CCC[C@@H]1C(=O)O [49-2]
pKi: ≥ 7.00

COc1ccccc1N(C)C(=O)c1cc(-c2cnc(C(F)(F)F)cc2C#N)c(Cl)cc1OCCN1CCC[C@H]1C(=O)O [49-3]
pKi: ≥ 7.00

CN(C(=O)c1ccc(Cl)c(-c2cnc(C(F)(F)F)cc2C#N)c1)c1ccccc1OCCCN1CCC[C@H]1C(=O)O [50-1, (S)-1-[3-(2-{[4-Chloro-3-(4-cyano-6-trifluoromethyl-pyridin-3-yl)-benzoyl]-methyl-amino}-phenoxy)-propyl]-pyrrolidine-2-carboxylic acid]
pKi: ≥ 7.00

CN(C(=O)c1ccc(Cl)c(-c2cnc(C(F)(F)F)cc2C#N)c1)c1ccccc1OCCN1CCC[C@@H]1C(=O)O [50-2]
pKi: ≥ 7.00

CN(C(=O)c1ccc(Cl)c(-c2cnc(C(F)(F)F)cc2C#N)c1)c1ccccc1OCCN1CCC[C@H]1C(=O)O [50-3]
pKi: ≥ 7.00

CN(C(=O)c1ccc(Cl)c(-c2cnc(C(F)(F)F)cc2C#N)c1)c1ccccc1OCCOc1ccccn1 [51-1, 4-Chloro-3-(4-cyano-6-trifluoromethyl-pyridin-3-yl)-N-methyl-N-{2-[2-(pyridin-2-yloxy)-ethoxy]-phenyl}-benzamide]
pKi: ≥ 7.00
